Measured values from the supplement of paper PMC8671470.

Experiments:
Conditions in all cases: 72 h
HL-60 = assay: area under dose-response curve (viability, 1 nM-10 uM) (fraction (0-1)); higher = more sensitive
In short: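 HL-60 cells in RPMI 1640 with 10% FBS were rescreened against the full library on 384-well plates at five tenfold concentrations, 1–10,000 nM, in duplicate. Each screen was run with DMSO or 100 nM of one of three metabolic inhibitors, for 72 h at 37 °C, 5% CO2. Viability was read by CellTiter-Glo and normalised to DMSO and 10 μM proteasome-inhibitor wells. Where given, area under the curve came from four-parameter log-logistic fits (drc, PharmacoGx).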

[1] = test system: myeloid leukemia patient primary cells Pat.13; assay: area under dose-response curve (viability, 1 nM-10 uM) (fraction (0-1)); higher = more sensitive
Protocol: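 AUC (0–1, higher = more sensitive) of the 5-point dose–response (1 nM–10 µM, 72 h, CellTiter-Glo) in primary AML/CML patient mononuclear cells. 0.030103 is the floor for inactive compounds.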

KU-812 = assay: cell viability (% survival relative to DMSO control, bortezomib = 0%); higher = less cytotoxic
In short: (§1)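 Seeding density for each of the 10 AML and 5 CML cell lines was titrated to the linear growth range. Cells went into 384-well plates pre-printed in duplicate with compounds at 1, 10, 100, 1000 or 10000 nM and were held for 72 h at 37 °C with 5% CO2. CellTiter-Glo luminescence then provided the readout. Percent survival is expressed relative to vehicle at 100% and a 10 µM positive control at 0%, averaged over duplicates.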

Mono-Mac-6 = assay: as above
In short: as §1

SHI-1 = assay: as above
In short: as §1

[2] = co-treatment: GSK2194069 100 nM
[3] = co-treatment: pictilisib 100 nM

Row | SMILES | area under dose-response curve (HL-60; co-treatment: AZD3965 100 nM) | area under dose-response curve (HL-60; co-treatment: DMSO vehicle) | area under dose-response curve (HL-60; [2]) | area under dose-response curve (HL-60; [3]) | area under dose-response curve [1] | cell viability (KU-812; 1 nM) | cell viability (KU-812; 10 nM) | cell viability (KU-812; 100 nM) | cell viability (KU-812; 1000 nM) | cell viability (KU-812; 10000 nM) | cell viability (Mono-Mac-6; 1 nM) | cell viability (Mono-Mac-6; 10 nM) | cell viability (Mono-Mac-6; 100 nM) | cell viability (Mono-Mac-6; 1000 nM) | cell viability (Mono-Mac-6; 10000 nM) | cell viability (SHI-1; 1 nM) | cell viability (SHI-1; 10 nM) | cell viability (SHI-1; 100 nM) | cell viability (SHI-1; 1000 nM) | cell viability (SHI-1; 10000 nM)
1 | Sc1ncnc2nc[nH]c12 [6-mercaptopurine] | 0.0762 | 0.0564 | 0.0946 | 0.0609 | < 0.0301 | 98.9% | 100% | 93% | 59.3% | 54.4% | 97.2% | 97.7% | 85.9% | 53.7% | 15.5% | 113% | 98.6% | 102% | 66.2% | 32.6%
2 | Cc1noc2c1-c1ccccc1C(c1ccc(Cl)cc1)=N[C@H]2CC(N)=O [CPI-0610] | 0.21 | 0.157 | 0.168 | 0.289 | 0.191 | 97.2% | 99.8% | 73.1% | 36% | 4.66% | 99.7% | 89.3% | 65.7% | 17% | 15.9% | 105% | 94.5% | 88.8% | 44.4% | 21.8%
3 | Nc1ccn([C@@H]2O[C@H](CO)[C@@H](O)[C@@H]2O)c(=O)n1 [Cytarabine] | 0.242 | 0.214 | 0.216 | 0.329 | 0.188 | 97% | 81.8% | 24.6% | 7.19% | 5.66% | 95.1% | 86.4% | 79.8% | 19.1% | 3.49% | 102% | 92.6% | 58% | 14.6% | 2.46%
4 | CCN(CC)CCN(Cc1ccc(-c2ccc(C(F)(F)F)cc2)cc1)C(=O)Cn1c(SCc2ccc(F)cc2)nc(=O)c2c1CCC2 [Darapladib] | 0.144 | 0.14 | 0.167 | 0.134 | 0.154 | 110% | 93.6% | 100% | 80.7% | -0.56% | 97% | 90.9% | 101% | 93.3% | -0.318% | 107% | 107% | 97.4% | 90.6% | -0.412%
5 | CC12CCC(O)CC1CCC1C2CCC2(C)C(C3=CC(=O)OC3)CCC12O (configuration not stated) [Digitoxigenin] | 0.372 | 0.376 | 0.386 | 0.374 | 0.324 | 105% | 97.4% | 101% | 7.21% | 3.46% | 111% | 89.6% | 83% | 1.4% | -1.27% | 108% | 108% | 103% | 4.47% | -0.733%
6 | C[C@H]1O[C@@H](O[C@H]2[C@@H](O)C[C@H](O[C@H]3[C@@H](O)C[C@H](O[C@H]4CC[C@@]5(C)[C@H](CC[C@@H]6[C@@H]5C[C@@H](O)[C@]5(C)[C@@H](C7=CC(=O)OC7)CC[C@]65O)C4)O[C@@H]3C)O[C@@H]2C)C[C@H](O)[C@@H]1O [Digoxin] | 0.459 | 0.479 | 0.423 | 0.486 | 0.384 | 92.2% | 113% | 30.5% | 4.45% | 4.24% | 94.6% | 100% | 13% | -0.503% | -0.351% | 115% | 94.9% | 17.8% | 0.649% | 0.63%
7 | c1ccc2c(c1)OCC(=C1NCCN1)O2 [Idazoxan] | < 0.0301 | < 0.0301 | < 0.0301 | < 0.0301 |  | 105% | 108% | 96.5% | 91.8% | 105% | 102% | 106% | 91.1% | 89.1% | 102% | 105% | 103% | 89.8% | 101% | 95.1%
8 | C[C@]12O[C@H](C[C@]1(O)CO)n1c3ccccc3c3c4c(c5c6ccccc6n2c5c31)CNC4=O [Lestaurtinib] | 0.381 | 0.293 | 0.335 | 0.452 | 0.23 | 96% | 89.8% | 39.4% | 43.1% | 6% | 83.4% | 54.1% | 4.06% | 0.62% | 0.201% | 107% | 97.9% | 37.1% | 19.5% | 0.00197%
9 | O=C(O)c1nn(Cc2ccc(Cl)cc2Cl)c2ccccc12 [Lonidamine] | < 0.0301 | < 0.0301 | < 0.0301 | < 0.0301 |  | 103% | 97% | 112% | 97% | 88.8% | 106% | 111% | 102% | 87.5% | 72.5% | 107% | 114% | 105% | 95.5% | 99.4%
10 | C1CCc2nnc(C34CC5CC(CC(C5)C3)C4)n2CC1 [MERCK-544] | < 0.0301 | < 0.0301 | < 0.0301 | < 0.0301 |  | 97.6% | 95% | 86.9% | 78.7% | 97.9% | 95.9% | 100% | 93.3% | 97.7% | 96% | 90.2% | 110% | 104% | 90.2% | 118%
11 | CC(Cc1ccc(O)c(O)c1)C(C)Cc1ccc(O)c(O)c1 (configuration not stated) [Masoprocol] | 0.12 | 0.104 | 0.0826 | 0.142 | 0.0768 | 102% | 94.3% | 102% | 102% | 59.4% | 86.6% | 109% | 102% | 84.2% | 22.8% | 97.1% | 96.2% | 118% | 93.3% | 70.1%
12 | COc1c(C)c2c(c(O)c1C/C=C(\C)CCC(=O)O)C(=O)OC2 [Mycophenolic acid] | 0.0599 | < 0.0301 | 0.0302 | 0.0317 |  | 94.6% | 94.5% | 104% | 51.7% | 10.9% | 104% | 99.7% | 108% | 80% | 16.4% | 105% | 104% | 92% | 77.2% | 14.4%
13 | C1CCC(C(CC2CCCCN2)C2CCCCC2)CC1.O=C(O)/C=C\C(=O)O (configuration not stated) [Perhexiline] | 0.133 | 0.125 | 0.16 | 0.198 |  | 96.3% | 85.1% | 94.9% | 99% | 8.47% | 91.8% | 87.4% | 85.9% | 98.6% | 1.23% | 95% | 92% | 103% | 102% | 0.332%
14 | OCCN1CCN(CCCN2c3ccccc3Sc3ccc(Cl)cc32)CC1 [Perphenazine] | 0.0332 | < 0.0301 | 0.0329 | < 0.0301 |  | 93.8% | 93.5% | 103% | 98% | 30% | 97.2% | 106% | 102% | 100% | 54.6% | 100% | 110% | 97.1% | 123% | 55.2%
15 | C=CCc1ccc2c(c1O)C(=O)c1ccccc1C2=O [R162] | < 0.0301 | < 0.0301 | < 0.0301 | < 0.0301 |  | 98.5% | 89.9% | 95.1% | 125% | 92.1% | 101% | 93.4% | 103% | 123% | 115% | 101% | 99.7% | 104% | 118% | 101%
16 | O=C(c1ccc(OCCN2CCCCC2)cc1)c1c(-c2ccc(O)cc2)sc2cc(O)ccc12 [Raloxifene] | < 0.0301 | < 0.0301 | < 0.0301 | < 0.0301 |  | 97.1% | 95.8% | 95.3% | 93% | 70.6% | 109% | 95.2% | 107% | 104% | 77% | 97% | 102% | 107% | 110% | 89.5%
17 | NC(=O)c1ncn([C@@H]2O[C@H](CO)[C@@H](O)[C@H]2O)n1 [Ribavirin] | < 0.0301 | < 0.0301 | < 0.0301 | < 0.0301 |  | 81.4% | 92.7% | 91.3% | 104% | 94.6% | 92.1% | 103% | 96.4% | 101% | 112% | 105% | 112% | 111% | 111% | 111%
18 | Nc1ncnc2c1ncn2[C@@H]1O[C@H](CSCC[C@H](N)C(=O)O)[C@@H](O)[C@H]1O [S-Adenosyl Homocysteine] | < 0.0301 | < 0.0301 | < 0.0301 | < 0.0301 |  | 90.8% | 96.9% | 99.2% | 104% | 105% | 96.7% | 101% | 96.9% | 104% | 93.7% | 100% | 122% | 111% | 105% | 99.9%
19 | CCCc1nn(C)c2c(O)nc(-c3cc(S(=O)(=O)N4CCN(C)CC4)ccc3OCC)nc12 [Sildenafil] | < 0.0301 | < 0.0301 | < 0.0301 | < 0.0301 |  | 87.5% | 104% | 91.3% | 107% | 92.1% | 87.9% | 110% | 100% | 110% | 105% | 103% | 95% | 104% | 111% | 114%
20 | Cc1coc2c1C(=O)C(=O)c1c-2ccc2c(C)cccc12 [Tanshinone I] | < 0.0301 | < 0.0301 | < 0.0301 | < 0.0301 |  | 105% | 104% | 101% | 106% | 89.2% | 126% | 107% | 106% | 102% | 84.7% | 110% | 88.4% | 108% | 105% | 84.2%
21 | CCOC(=O)N1c2ccc(C(F)(F)F)cc2[C@@H](N(Cc2cc(C(F)(F)F)cc(C(F)(F)F)c2)C(=O)OC)C[C@H]1CC [Torcetrapib] | < 0.0301 | < 0.0301 | < 0.0301 | < 0.0301 | 0.0668 | 101% | 112% | 113% | 102% | 83.8% | 109% | 109% | 107% | 90.8% | 78.2% | 94.8% | 105% | 132% | 114% | 99.8%
22 | Oc1cc(Cl)ccc1Oc1ccc(Cl)cc1Cl [Triclosan] | < 0.0301 | < 0.0301 | < 0.0301 | < 0.0301 |  | 98.8% | 87% | 99.2% | 98% | 57.9% | 94.5% | 98.3% | 101% | 116% | 97.2% | 105% | 96% | 98.3% | 101% | 103%
